According to US8193235B2, “Compositions and methods for establishing and maintaining stem cells in an undifferentiated state” (University of Kansas, priority 2009, dated 2012):

Experiments:
PKC β = tested on: PKC β; design: key: X^1: PKC β1; X^2: PKC β2; details: X = isoform inhibited; superscript 1 PKC β1, 2 PKC β2; cited from earlier work
E14 ES cells [1] = test: ES cell culture in the absence of LIF (undifferentiated state, marker expression); type: cell-based, mouse; details: mouse ES cells, without LIF
Experimental: (§1) E14 ES Cell Cultures. Cells were grown in ES-IMDM media (Lonza, Walkersville, Md.) in a feeder-free condition. ES-IMDM was supplemented with 15% serum, 10^5 U/100 ml of LIF (ESGRO, Millipore, Calif.) and 0.0124% monothioglycerol (MTG; Sigma Aldrich). Cells were grown for 3-5 days with change of medium every day. For inducing differentiation in monolayer culture and to determine the effect of Gö6983 in preventing differentiation, E14 cells were cultured on gelatin-coated plastics for 8 days without LIF. Details of experiments performed at clonal-density are described herein. To maintain E14 cells with Gö6983, serum supplemented ES-IMDM was used in the presence of 5 μM Gö6983 and was passed after every 3-5 days. For all assays involving elucidation of different signaling mechanism responsible for maintenance of pluripotency, cells from a ˜70% confluent ES culture plate were washed two times with 1× phosphate-buffered saline (PBS), trypsinized and plated on a 6-well tissue culture plate and treated with or without LIF or Gö6983 or different inhibitors for ˜10 hours followed by preparation of protein lysates and RNA. The PKCζ knocked-down E14 cells that were generated in this study were maintained in serum supplemented ES-IMDM on gelatin-coated plates in the absence of Gö6983 or LIF or any other inhibitor and passed after 3-5 days. For the experiments herein, cells were continuously cultured at least for 5 consecutive passages (>18 days) on gelatin-coated plates without significant differentiation.
Quantitative RT-PCR Analysis. RNA was extracted from different cell samples with TRIZOL reagent (Invitrogen). cDNA was prepared by annealing RNA (1 μg) with 250 ng of a 5:1 mixture of random and oligo(dT) primers heated at 68° C. for 10 minutes. This was followed by incubation with Moloney murine leukemia virus reverse transcriptase (50 units) (Invitrogen, Carlsbad, Calif.) combined with 10 mM DTT, RNasin (PROMEGA, Madison, Wis.), and 0.5 mM dNTPs at 42° C. for 1 hour. Reactions were diluted to a final volume of 100 μl and heat inactivated at 97° C. for 5 minutes. Twenty μl PCR reactions contained 2 μl cDNA, 10 μl SYBR Green Master Mix (Applied Biosystems, Foster City, Calif.) and corresponding primer sets. Relative expression levels were determined from a standard curve of serial dilutions of proliferating ES cell cDNA samples and were normalized to the expression of glyceraldehyde-3-phosphate dehydrogenase (GAPDH). At least three independent experiments were done for each set of data.
Immunostaining. Immunostaining of Oct4, and Nanog expression was performed using standard protocols. Briefly, ES cells were fixed in 4% paraformaldehyde/4% sucrose, permeabilized with 0.1% TRITON X 100 (Sigma). Cells were blocked by adding 1% fish gelatin (Sigma, St. Louis, Mo.) and incubated overnight at 4° C. with 200 μl of primary antibodies. Fluorescent-conjugated secondary antibodies (ALEXA FLUOR 488, and ALEXA FLUOR 568, Molecular Probes, Invitrogen) were used at 1:250 dilutions to visualize cells. Images were captured using a LEICA fluorescence microscope.

c-Myc = test: GSK-3β-mediated phosphorylation of c-Myc at T58; type: cell-based, mouse; details: added in Gö6983 culture condition
ERK1/2 = ERK1/2 phosphorylation in ES cells; type: cell-based, mouse; details: combination of Gö6983 and PD0325901
Experimental: as §1, with “For the experiments herein, cells were continuously cultured at least for 5 consecutive passages (>18 days) on gelatin-coated plates without significant differentiation.” left out

p90Rsk1 (Rsk1) = test: Phosphorylation of p90Rsk1; type: cell-based, mouse; details: added to Gö6983-treated cells
Experimental: Western Blot Analysis. Whole cell lysates were prepared in SDS-gel loading buffer and resolved by 10% PAGE. The antibodies used for this study included β-actin Clone AC-15 from Sigma; p-STAT3 (Tyr705), p-p44/42 MAPK (tyr202/tyr204), p44/42 MAPK, GSK3β, Phospho Akt (Ser473), Akt, p-NFκβ p65 (Ser536), c-Myc, p-c-Myc (Thr58/Ser62), p-p90RSK (Thr359/Ser363), RSK1, Suz12 (D39F6), and Ezh2 (AC22) from Cell Signaling Technology; STAT3 (C-20), Oct-4 (C-10), Nanog (M-149), PKC α (C-20), PKC βI (C-16), PKC βII (C-18), PKC γ (C-19), PKC δ (C-20), PKC ζ (c-20), p-PKC ζ (Thr 410)-R, p-NFκβ p65 (ser311), and RelA (p65) from Santa Cruz Biotechnology; p-LGL1/LGL2 (S650/S654), SSEA4and H3K4Me3 from Abcam; LGL2 (M06), clone 4G2 from Abnova; β-Catenin from BD Transduction Laboratories, and H3K27Me3 and H3K9Me3 from Millipore.

E14 ES cells [2] = test: ES cell differentiation on collagen IV and with retinoic acid; type: cell-based, mouse; details: absence of LIF
Description: ES Cell Differentiation on Collagen-IV and With Retinoic Acid. To differentiate ES cells in monolayer culture on collagen IV, around 3×10^4 cells per well were transferred to collagen IV-coated 6-well plates (BD Biosciences, Franklin Lakes, N.J.) cultured for 5 days in ES differentiation medium containing DMEM (Invitrogen), 15% FBS (selected for endothelial differentiation, Stem Cell Technologies, Vancouver, BC), sodium pyruvate and L-glutamine with or without LIF and Gö6983, and were recovered by cell dissociation buffer (BD Biosciences, Franklin Lakes, N.J.). For culturing multiple passages with Gö6983 on collagen-IV, the recovered cells were again plated at a density of ˜3×10^4 cells per well and cultured again for 5 days. […] For RA-induced differentiation on monolayer culture, ES cells were treated with all-trans-retinoic acid (Sigma, St. Louis, Mo.) in ethanol at a concentration of 1 μM with or without LIF and Gö6983 for 6 days followed by study of expression of pluripotency markers (by immunofluorescence or western blot or RT-PCR analysis).

mESCs = test: Gö6983-mediated inhibition of mESC differentiation in presence of pathway inhibitors; type: cell-based, mouse; details: added to Gö6983 culture
Experimental: Inhibitors. Gö6983 was purchased from three different companies (Sigma, St. Louis, Mo.; EMD Chemicals Inc.; and Tocris Biosciences) for validation. In all experiments except the concentration profile, Gö6983 was used at 5 μM final concentration. […] Rottlerin (0.1-5 μM), and RO-318425 (0.1-5 μM) were purchased from EMD Chemicals. Jak Inhibitor I (10 μM), PD0325901 (1 μM) and AKT inhibitor IX (10 μM) were from Calbiochem and CHIR99021 (3 μM) was purchased from Stemgent.
E14 ES Cell Cultures. Cells were grown in ES-IMDM media (Lonza, Walkersville, Md.) in a feeder-free condition. ES-IMDM was supplemented with 15% serum, 10^5 U/100 ml of LIF (ESGRO, Millipore, Calif.) and 0.0124% monothioglycerol (MTG; Sigma Aldrich). Cells were grown for 3-5 days with change of medium every day. For inducing differentiation in monolayer culture and to determine the effect of Gö6983 in preventing differentiation, E14 cells were cultured on gelatin-coated plastics for 8 days without LIF. Details of experiments performed at clonal-density are described herein. To maintain E14 cells with Gö6983, serum supplemented ES-IMDM was used in the presence of 5 μM Gö6983 and was passed after every 3-5 days. […]

Akt = Akt phosphorylation in mESCs; type: cell-based, mouse
Experimental: as §1, with “For the experiments herein, cells were continuously cultured at least for 5 consecutive passages (>18 days) on gelatin-coated plates without significant differentiation.” left out

CN(C)CCCn1cc(C2=C(c3c[nH]c4ccccc34)C(=O)NC2=O)c2ccccc21 [Bisindolylmaleimide I]
Isoform Specificity β (PKC β): X^1 | ES cell differentiation in the absence of LIF (E14 ES cells [1]): able to inhibit ES cell differentiation, albeit at a lower efficiency than Gö6983

Cc1c[nH]c(-c2cnc(NCCNc3ccc(C#N)cn3)nc2-c2ccc(Cl)cc2Cl)n1 [CHIR99021]
c-Myc phosphorylation (c-Myc): abolished

Cn1c2ccccc2c2c3c(c4c5ccccc5n(CCC#N)c4c21)CNC3=O [Gö6976]
Isoform Specificity β (PKC β): X^2 | ES cell differentiation in the absence of LIF (E14 ES cells [1]): could not prevent differentiation

O=C(NOC[C@H](O)CO)c1ccc(F)c(F)c1Nc1ccc(I)cc1F [PD0325901]
ERK1/2 phosphorylation (ERK1/2): almost completely inhibited | Rsk1 phosphorylation (p90Rsk1 (Rsk1)): abolished

Cn1cc(C2=C(c3c4n(c5ccccc35)CCC(CN)C4)C(=O)NC2=O)c2ccccc21 (stereo not drawn) [Ro-31-8425]
ES cell differentiation in the absence of LIF (E14 ES cells [1]): could not prevent differentiation

CC(=O)c1c(O)c(C)c(O)c(Cc2c(O)c3c(c(C(=O)/C=C/c4ccccc4)c2O)OC(C)(C)C=C3)c1O [Rottlerin]
ES cell differentiation in the absence of LIF (E14 ES cells [1]): could not prevent differentiation

N#CC(=C(/N)Sc1ccccc1N)/C(C#N)=C(/N)Sc1ccccc1N [U0216]
differentiation of ES cells on collagen IV (E14 ES cells [2]): failed to block differentiation

Jak-Inhibitor-I
effect of added inhibitor on Gö6983-mediated inhibition of mESC differentiation / maintenance of self-renewal (mESCs): ineffective

LIF: cytokine leukemia inhibitory factor, activates STAT3
Akt phosphorylation (Akt): induced
